Laboratory results published in patent publication US20230226231A1, “CONJUGATED AND LABELLED APELIN, PREPARATION AND USES THEREOF” (UNIVERSITE D'AIX MARSEILLE, priority 2020, published 2023).

What was measured:
[1] = tested on: Human colon adenocarcinoma xenografts (T84 cells); assay: MicroPET imaging in ectopic mouse model of human colon adenocarcinoma, baseline and blocking; format: in vivo, mice
Procedure: Human colon adenocarcinoma xenografts were established by subcutaneous injections of 1×10^6 T84 cells into 6-week-old male Swiss nude mice (Charles River) under 2% isoflurane anesthesia.
PET images were acquired 1 h after IV injection on a Mediso NanoPET/CT under 2% isoflurane anesthesia.

APJ = target: T1, APJ (Homo sapiens, UniProt P35414); assay: Autoradiography with blocking strategy on T84 cells; format: cell-based; details: 100-fold excess of unconjugated Apelin13(F13A)
T1 construct: host or cells: T84 human colon adenocarcinoma cells
T1 sequence (P35414 1-380): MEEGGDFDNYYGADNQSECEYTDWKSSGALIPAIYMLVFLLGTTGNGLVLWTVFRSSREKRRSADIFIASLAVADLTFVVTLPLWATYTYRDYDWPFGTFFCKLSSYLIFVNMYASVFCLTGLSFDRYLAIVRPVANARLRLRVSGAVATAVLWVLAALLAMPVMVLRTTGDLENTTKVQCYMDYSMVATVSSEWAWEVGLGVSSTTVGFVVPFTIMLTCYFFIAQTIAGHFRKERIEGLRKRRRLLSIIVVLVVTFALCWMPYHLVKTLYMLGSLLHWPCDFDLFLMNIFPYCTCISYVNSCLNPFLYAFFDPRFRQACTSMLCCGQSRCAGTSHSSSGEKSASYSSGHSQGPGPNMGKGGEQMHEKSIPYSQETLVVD
Procedure: A blocking strategy was performed on cells expressing the highest level of APJ. This strategy consists in adding a large excess (100-fold) of unconjugated peptide (Apelin13(F13A)) before adding inventors' product of interest. Unspecific tracer was eliminated by several washes. The remaining activity, considered as specifically bound to the target, was evaluated by autoradiography.
T84 cell line (EuroBioDev) was cultivated in DMEM-F12/Glutamax medium complemented with 10% fetal bovine serum decomplemented and 1% antimycotic-antibiotic mix. Cell lines were maintained in a humidified 5% CO2 incubator at 37° C.

[2] = Hydrophilicity, water-octanol partition/distribution coefficient method; format: physicochemical; details: 1-octanol / phosphate-buffered saline pH 7.4
Procedure: Hydrophilicity of [^67Ga]Ga-AP747 was assessed by the water-octanol partition/distribution coefficient method. In a centrifuge tube, 500 μL of 1-octanol was added to 500 μL of phosphate-buffered saline (pH 7.4) containing the radiolabeled peptide (50 kBq). After equilibrium, the solution was vigorously stirred for 5 min at room temperature and subsequently centrifuged (4000 rpm, 5 min) to yield two immiscible layers. Aliquots of 100 μL were taken from each layer and the radioactivity in the samples was determined by a gamma counter (Perkin Elmer, Waltham, Mass., USA).

APJ receptor, T84 cells = target: T2, APJ receptor, T84 cells (Homo sapiens, UniProt P35414); assay: In vitro internalization study in T84 cells; format: cell-based
T2 construct: host or cells: T84 human colon adenocarcinoma cells
T2 sequence (P35414 1-380): T1 sequence (P35414 1-380)
Procedure: (§1) T84 cells were cultured as described in saturation binding experiments above.
Three minutes before the end of the incubation time, internalization was stopped on ice and the supernatant was removed. Internalization was then stopped by eliminating the supernatant and each well was washed with 3×250 μL of ice-cold PBS. The membrane-bound fraction was retrieved in 2×250 μL sodium acetate buffer (20 mM, pH 5) for 5 min. Finally, cells were treated with 500 μL of NaOH (1 M). The radioactivity of the membrane-bound fraction and the internalized fraction was measured in a gamma counter. The experiment was performed twice. To also verify receptor specificity, blocking experiments were performed by using 1 μM of apelin-13.

T84 cells = assay: In vitro efflux study on T84 cells; format: cell-based, human
Procedure: as §1
Three minutes before the end of the incubation time, internalization was stopped on ice and the supernatant was removed. Each well was washed with 1 mL of ice-cold PBS. The membrane-bound fraction was retrieved in 2 mL sodium acetate buffer (20 mM, pH 5) for 2 min, each well was rinsed a second time with 1 mL ice-cold PBS and fresh culture medium was added. At each time point (10, 30, 60 and 120 minutes), the efflux was stopped by collecting the medium and washing cells twice with ice-cold PBS. Finally, cells were treated with NaOH (1 M). The radioactivity of the collected culture medium supernatant, the PBS wash fractions, and the total internalized fraction was measured in a gamma counter. The experiment was performed twice.

[3] = Stability of radiolabelled tracer in human serum; format: in vitro ADME
Procedure: Determination of radiochemical purity was done by radio-thin-layer chromatography (ITLC-SG) and was performed using a Ray-test miniGITA radio-TLC scanner detector (Straubenhardt, Ge) (eluents, 1:1 [v/v] mixture of 1M aqueous ammonium acetate solution and methanol and also in Trisodium Citrate 0,1M). Evaluation of ^68Ga-NODAGA-Apelin13(F13A) stability was performed in human serum at 60 and 120 min after radiosynthesis.

[4] = MicroPET biodistribution study in healthy mice; format: in vivo; details: IV injection, up to 2 h
Procedure: For biodistribution study in healthy mice (n=3), images were continuously acquired just after ^68Ga-NODAGA-Apelin13(F13A) IV injection with 5-6 MBq and recorded up to 2 h post injection on a Mediso NanoPET/CT under 2% isoflurane anesthesia.
(§2) Quantitative region-of-interest (ROI) analysis of the PET images was performed on attenuation- and decay-corrected PET images using InVicro—VivoQuant software and tissue uptake values are presented as an ischemic muscle to contralateral muscle ratio and as a percentage of the injected dose per gram of tissue (% ID/g) which was determined by decay correction for each sample normalized to a standard of known weight, which was representative of the injected dose.

Matrigel plug = assay: MicroPET imaging in Matrigel mouse model; format: in vivo, mice
Procedure: These mice were also subcutaneously implanted with Matrigel (Dutscher) supplemented with 10% fetal bovine serum under 2% isoflurane anesthesia.
(§3) On hindlimb ischemia mouse model (n=8) and Matrigel mouse model (n=7) on day 1, 3, 7, 10, 13 and 21 post-surgery, mice were IV injected with 5-10 MBq of ^68Ga-NODAGA-Apelin13(F13A) under 2% isoflurane anesthesia.
(§4) PET images were acquired 60 min after IV injection on a Mediso Nanoscan PET/CT under 2% isoflurane anesthesia. On hindlimb ischemia mouse model and on day 1, 3, 7, 10, 13 and 21 post-surgery, mice were IV injected with 5-10 MBq of [^68Ga]Ga-NODAGA-RGD2 injection under 2% isoflurane anesthesia. PET images were acquired 60 min after IV injection on a Mediso Nanoscan PET/CT under 2% isoflurane anesthesia.
as §2

ischemic limb = assay: MicroPET imaging in mouse model of hindlimb ischemia; format: in vivo, mice
Procedure: Unilateral hindlimb ischemia was performed on 9-week-old male Swiss mice (Janvier Labs) after femoral artery excision under 2% isoflurane anesthesia. LASER Doppler perfusion imaging (Perimed, Craponne, France) was used to assess revascularization from day 0 to day 21 after surgery. Perfusion results are expressed as a ratio of ischemic to non-ischemic limb blood flow. Hindlimb ischemic damage was quantified on Days 1, 3, 7, 10, 13 and 21.
as §3, §4, §2

[5] = PET signal ratio on day 7, corrected with non-ischemic limb

## CSCC[C@H](NC(=O)[C@@H]1CCCN1C(=O)CNC(=O)[C@H](CCCCN)NC(=O)[C@H](Cc1c[nH]cn1)NC(=O)[C@H](CO)NC(=O)[C@H](CC(C)C)NC(=O)[C@H](CCCNC(=N)N)NC(=O)[C@@H]1CCCN1C(=O)[C@H](CCCNC(=N)N)NC(=O)[C@@H](N)CCC(N)=O)C(=O)N1CCC[C@H]1C(=O)N[C@@H](C)C(=O)O [Apelin13(F13A), reference compound]
[1]; due to cardiovascular effects of Apelin
  tolerance of cold peptide in in vivo blocking experiments: bad tolerance

## AP747: AP747 corresponds to NODAGA-Apelin13(F13A); used radiolabelled in the autoradiography
APJ
  remaining activity recorded by autoradiography in blocking condition compared to classic conditions: significantly reduced

## [^67Ga]Ga-AP747: NODAGA-Apelin13(F13A) radiolabelled with gallium-67, used for in vitro binding, internalization and efflux studies
[2]
  log D7.4: −3.03±0.02
APJ receptor, T84 cells; 37° C., at 60 min
  internalized fraction of the cell associated radioactivity (maximum): 79.7±7.3%
APJ receptor, T84 cells; at any time point (10, 30, 60 min)
  receptor specific membrane-bound fraction: < 5%
T84 cells; 10 minutes post-internalization
  efflux: fraction of the total binding externalized: 66.7±1.7%
T84 cells; at 2 h
  efflux: fraction of the total binding externalized: 81.2±2.9%

## [^68Ga]Ga-NODAGA-Apelin13(F13A): Apelin-13(F13A) peptide (SEQ ID NO: 5) conjugated to chelator NODAGA and radiolabelled with gallium-68; PET tracer of APJ
[3]; human serum, until two hours post-incubation, n=3
  radiochemical purity after incubation in human serum: didn't lead to significant tampering
[3]; serum
  stability in serum: up to 2 hours
[4]; n=3
  excretion and organ accumulation (PET signal quantification in organs): fast and mainly urinary excretion without noticeable accumulation in liver, lungs or brain
[4]; n=3, listed as (F13A)Apelin-NODAGA-^68Ga
  excretion and organ accumulation (PET signal quantification in organs): Rapid urinary and hepatic elimination
Matrigel plug; day 1 to day 21
  PET signal in Matrigel compared with [68Ga]Ga-NODAGA-RGD2, globally over experiment period: significantly superior
Matrigel plug; day 10, day 13 and day 21, PET 60 min after IV injection
  accumulation in Matrigel plug compared with [68Ga]Ga-NODAGA-RGD2: significantly higher
Ischemic limb; PET signal on day 7, corrected with non-ischemic limb
  relation of PET signal in ischemic limb to day-input function (LASER Doppler Day7/Day0): not linked
Ischemic limb; [5]
  correlation of PET signal in ischemic limb with LASER-Doppler signal at day of surgery: significantly negatively correlated
  relation of PET signal in ischemic limb to reperfusion (LASER-Doppler Day 21/Day 0): more important when reperfusion is longer
Ischemic limb; at peak
  PET signal in ischemic limb compared with [68Ga]Ga-NODAGA-RGD2: notably better
Ischemic limb; ischemic limb corrected by non-ischemic limb, post-surgery
  day of peak PET signal in ischemic limb: 7 days
[1]; pre-saturation with cold Apelin13(F13A), angiogenic and tumoral models
  partial blocking of PET signal in in vivo blocking experiments: about 50%
